In patent US9402856B2, “Pharmaceutical composition for preventing or treating diabetes containing TENC1 expression or activity suppressor” (POSTECH ACADEMY-INDUSTRY FOUNDATION, priority 2012, dated 2016):
Residues, ends and D or L forms follow the SMILES beside them. *: point of attachment. Cbz = O=C(OCc1ccccc1)*

Assays:
[1] = target: T1, PTPase domain of TENC1 (Homo sapiens, UniProt Q63HR2, P1246L); test: binding of TENC1 and IRS-1, immunoprecipitation using IRS-1; conditions: FIG. 5
T1 construct: expressed in transfected cells
T1 sequence (Q63HR2 1-1409 P1246L): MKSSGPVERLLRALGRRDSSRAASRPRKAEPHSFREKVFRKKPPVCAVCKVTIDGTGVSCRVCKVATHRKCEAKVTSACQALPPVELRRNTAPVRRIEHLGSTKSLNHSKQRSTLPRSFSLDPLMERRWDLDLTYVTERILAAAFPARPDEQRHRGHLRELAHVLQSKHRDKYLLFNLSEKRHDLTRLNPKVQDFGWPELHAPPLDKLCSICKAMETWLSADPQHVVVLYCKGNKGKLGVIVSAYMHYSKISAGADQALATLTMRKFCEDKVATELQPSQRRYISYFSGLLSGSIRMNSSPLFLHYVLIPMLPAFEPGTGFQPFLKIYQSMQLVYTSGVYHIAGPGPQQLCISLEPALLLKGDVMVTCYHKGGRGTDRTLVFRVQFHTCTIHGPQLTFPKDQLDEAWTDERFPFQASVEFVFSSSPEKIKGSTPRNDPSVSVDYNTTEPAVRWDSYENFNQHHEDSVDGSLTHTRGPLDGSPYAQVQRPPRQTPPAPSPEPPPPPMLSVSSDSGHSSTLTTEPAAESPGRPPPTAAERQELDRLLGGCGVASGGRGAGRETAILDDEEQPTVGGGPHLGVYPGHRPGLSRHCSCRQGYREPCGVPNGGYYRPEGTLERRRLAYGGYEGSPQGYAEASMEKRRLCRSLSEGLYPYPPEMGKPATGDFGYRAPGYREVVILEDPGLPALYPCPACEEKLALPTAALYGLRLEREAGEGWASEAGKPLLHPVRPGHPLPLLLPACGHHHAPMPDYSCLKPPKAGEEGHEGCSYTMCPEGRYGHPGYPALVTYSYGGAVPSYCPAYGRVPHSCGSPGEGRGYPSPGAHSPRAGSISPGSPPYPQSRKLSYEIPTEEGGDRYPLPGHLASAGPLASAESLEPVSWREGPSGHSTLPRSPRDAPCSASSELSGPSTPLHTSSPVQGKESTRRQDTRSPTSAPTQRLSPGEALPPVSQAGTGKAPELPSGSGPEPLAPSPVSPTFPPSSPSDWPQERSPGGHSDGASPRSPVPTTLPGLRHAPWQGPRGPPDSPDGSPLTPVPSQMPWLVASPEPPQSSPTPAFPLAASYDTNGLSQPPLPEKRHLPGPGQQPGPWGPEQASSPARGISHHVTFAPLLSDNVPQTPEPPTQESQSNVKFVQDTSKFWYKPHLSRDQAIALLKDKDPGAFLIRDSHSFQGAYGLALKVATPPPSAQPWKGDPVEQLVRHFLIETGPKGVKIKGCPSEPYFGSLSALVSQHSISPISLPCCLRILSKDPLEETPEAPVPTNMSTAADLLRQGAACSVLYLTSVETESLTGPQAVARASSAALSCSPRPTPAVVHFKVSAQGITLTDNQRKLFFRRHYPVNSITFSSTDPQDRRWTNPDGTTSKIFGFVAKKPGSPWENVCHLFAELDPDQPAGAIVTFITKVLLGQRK
Protocol: In order to determine a mechanism of TENC1 that suppresses phosphorylation of IRS-1, immunoprecipitation was performed using IRS-1. In a control experiment, vanadate, which is an analogue of phosphotyrosine and binds to a PTPase domain to inhibit the PTPase activity, was used.

[2] = target: T2, TENC1 (Homo sapiens, UniProt Q63HR2, P1246L); test: degradation of IRS-1 protein in myotube overexpressing TENC1, Western blotting; type: cell-based; design: expressed in transfected cells; host or cells: L6 myotube (adenoviral overexpression)
T2 sequence (Q63HR2 1-1409 P1246L): T1 sequence (Q63HR2 1-1409 P1246L)
Protocol: In order to know a physiological function of TENC1, TENC1 was overexpressed in L6 myotube (muscle cell) that plays a main role in IRS-1, using an adenovirus. Using the same method as in Example 1, the quantitative PCR was performed and it was confirmed that TENC1 mRNA was increased eightfold to tenfold in the myotube. Then, using the same method as in Example 2, phosphorylation of proteins associated with IRS-1 was determined.
Accordingly, in order to determine the reason for the decrease of IRS-1, it was determined whether TENC1 influences a ubiquitin proteasome pathway or serine phosphorylation of IRS-1 by Western blotting. In order to determine whether TENC1 influences a protein-degrading mechanism, MG132, which is an inhibitor of a protein-degrading enzyme (proteasome), was treated.
In order to determine whether the PTPase activity of TENC1 influences degradation of IRS-1, vanadate was treated to determine whether degradation of IRS-1 is suppressed by Western blotting.

[3] = target: T2, TENC1; test: PTPase activity of separated TENC1, malachite green assay; type: biochemical; design: expressed in transfected cells; conditions: separated TENC1 proteins, FIG. 16A
Protocol: In addition, in order to measure the PTPase activity of TENC1, first, TENC1 was separated from HEK293 cell lines using a Flag immunoprecipitation/Flag peptide elution system. Then, the PTPase activity of the separated TENC1 was measured over time, using peptides having phosphotyrosine. The PTPase activity was analyzed by a malachite green assay method. As a control group, PTEN (a phosphatase and tensin homolog) or the TENC1 CS variant was used.
As a result, it was confirmed that the PTPase activity of TENC1 was inhibited by 60% or more (FIG. 16A).

With [O]=[V]([O-])([O-])[O-] [vanadate] the “binding of TENC1 WT with IRS-1” value [1] was “binding with IRS-1 decreased” and the “degradation of IRS-1” value ([2]; vanadate treated, Western blotting, FIG. 10) was “degradation of IRS-1 was suppressed”.
C[C@H]1[C@H](C)CC[C@]2(C(=O)O)CC[C@]3(C)C(=CC[C@@H]4[C@@]5(C)CC[C@H](O)C(C)(C)[C@@H]5CC[C@]43C)[C@H]12 [ursolic acid] was tested, and the inhibition at 20 µM [3] was no less than 60% and the “degree of degradation of IRS-1 protein” value ([2]; myotube overexpressing TENC1, increasing concentration, FIG. 16C) was “IRS-1 is restored to a level similar to a control group”.
For CC(C)C[C@@H](C=O)NC(=O)[C@H](CC(C)C)NC(=O)[C@H](CC(C)C)NC(=O)OCc1ccccc1 [MG132] (Cbz-Leu-Leu-Leu-aldehyde), the “amount of IRS-1” value ([2]; with and without insulin, TENC1 overexpressed, FIG. 9) was “the decreased amount of IRS-1 was restored”.
